Earlier results in publication PMC3583338 (Clinical pharmacology and therapeutics, 2008).

CC(C)c1nc(CN(C)C(=O)N[C@H](C(=O)N[C@@H](Cc2ccccc2)C[C@H](O)[C@H](Cc2ccccc2)NC(=O)OCc2cncs2)C(C)C)cs1 [ritonavir]
effect on OATP1B3 (OATP1B3): little or no effect | inhibition of OATP-mediated fexofenadine transport (OATP): 13% | effect on OATP1B1 (OATP1B1): little or no effect | P-gp mRNA expression (P-gp): moderately induced
